The structures appear in SMILES notation.

The inhibition is the relative decrease from the control value, in per cent.

The first experiment deals with T1, ASIC1 (hASIC1; ASIC1a as primary isoform in tsA-201 cells) (Homo sapiens, UniProt P78348).
T1 sequence (P78348 1-528): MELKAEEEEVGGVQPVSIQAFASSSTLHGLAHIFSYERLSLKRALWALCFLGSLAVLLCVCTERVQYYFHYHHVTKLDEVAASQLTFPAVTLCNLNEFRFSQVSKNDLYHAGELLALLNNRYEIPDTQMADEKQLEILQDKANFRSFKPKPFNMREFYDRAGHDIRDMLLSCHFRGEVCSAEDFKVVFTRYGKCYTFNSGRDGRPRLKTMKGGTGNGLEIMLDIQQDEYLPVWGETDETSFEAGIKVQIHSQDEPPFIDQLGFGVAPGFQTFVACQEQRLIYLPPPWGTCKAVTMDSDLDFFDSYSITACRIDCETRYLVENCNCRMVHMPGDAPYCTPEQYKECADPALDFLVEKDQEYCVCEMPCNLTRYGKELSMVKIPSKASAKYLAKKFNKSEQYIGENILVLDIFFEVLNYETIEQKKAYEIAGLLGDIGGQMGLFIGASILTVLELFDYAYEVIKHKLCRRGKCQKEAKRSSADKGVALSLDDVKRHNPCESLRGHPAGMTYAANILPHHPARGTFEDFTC
The experiment in a line: automated patch clamp, single concentration. Type of experiment: cell-based. To be noted: tsA201, read-out: % inhibition @ 30 µM. A general note: In patch-clamp work, channel activity is measured electrically.
As for `N=C(N)NC(=O)c1nc(-c2ccco2)c(N)nc1N` [compound 14, 14], the inhibition at 30 µM was found to be 75 ± 1%.
For the compound `CC(C)(C)c1ccc2oc(-c3nc(C(=O)NC(=N)N)c(N)nc3N)cc2c1` [compound 21, 21], the inhibition at 30 µM was 71 ± 2%.
As to `N=C(N)NC(=O)c1nc(-c2cc3cc(F)ccc3o2)c(N)nc1N` [compound 23, 23], the inhibition at 30 µM was 82 ± 1%.
As to `COc1ccc2oc(-c3nc(C(=O)NC(=N)N)c(N)nc3N)cc2c1` [compound 29, 29], the inhibition at 30 µM worked out at 82 ± 1%.
As for `N=C(N)NC(=O)c1nc(-c2cc3cc(F)cc(F)c3o2)c(N)nc1N` [compound 35, 35], the inhibition at 30 µM is 76 ± 3%.

A further experiment addresses T1, ASIC1 (hASIC1; ASIC1a as primary isoform in tsA-201 cells). The experiment in a line: cell-based. Conditions: tsA201, read-out: % inhibition @ 30 µM.
Consider `N=C(N)NC(=O)c1nc(-c2cc3ccccc3o2)c(N2CCCC2)nc1N` [compound 59, 59], for which the inhibition at 30 µM stood at 59%.
Consider `N=C(N)NC(=O)c1nc(-c2cc3ccccc3o2)c(N2CCCCC2)nc1N` [compound 60, 60], for which the inhibition at 30 µM was determined as 54%.
For `CCN(c1nc(N)c(C(=O)NC(=N)N)nc1-c1cc2ccccc2o1)C(C)C` [compound 62, 62], the inhibition at 30 µM is 46%.
Take `N=C(N)NC(=O)c1nc(-c2cc3ccccc3o2)c(NC2CCCC2)nc1N` [compound 63, 63]: the inhibition at 30 µM worked out at 22%.
Consider `N=C(N)NC(=O)c1nc(-c2cc3ccccc3o2)c(NC2CCCCCC2)nc1N` [compound 64, 64], for which the inhibition at 30 µM is 10%.
With `N=C(N)NC(=O)c1nc(-c2cc3ccccc3o2)c(NCc2ccccc2)nc1N` [compound 65, 65], the inhibition at 30 µM was 39%.
As to `N=C(N)NC(=O)c1nc(-c2cc3ccccc3o2)c(NCCc2ccccc2)nc1N` [compound 66, 66], the inhibition at 30 µM worked out at 31%.

The target is the same in the next experiment. The experiment can be described thus: cell-based. To be noted: tsA201, read-out: % inhibition @ 30 µM. This is another data set of the same source.
Regarding `N=C(N)NC(=O)c1nc(Cl)c(N2CCOCC2)nc1N` [compound 80, 80], the inhibition at 30 µM worked out at 75%.
For the compound `N=C(N)NC(=O)c1nc(Cl)c(N2CCCOCC2)nc1N` [compound 83, 83], the inhibition at 30 µM came to 67%.
Turning to `N=C(N)NC(=O)c1nc(-c2cncnc2)c(N2CCCOCC2)nc1N` [compound 84, 84], the inhibition at 30 µM was 14%.
`COc1ncc(-c2nc(C(=O)NC(=N)N)c(N)nc2N2CCCOCC2)cn1` [compound 85, 85]: the inhibition at 30 µM was found to be 8%.
On the same count and under the same terms, next, `N=C(N)NC(=O)c1nc(-c2cc3ccccc3o2)c(N2CCCOCC2)nc1N` [compound 86, 86]: 26%.

The values above are taken from publication doi:10.1101/2022.03.12.484055v1 (biorxiv, 2022).
